Experimental data taken from patent publication US9133179B2, “2-methoxy-pyridin-4-yl-derivatives” (Actelion Pharmaceuticals Ltd., priority 2011, dated 2015).
pEC50: −log10 of the molar value.

Tests used:
circulating lymphocytes = assay: Assessment of in vivo efficacy: circulating lymphocytes after oral administration to Wistar rats; set-up: species or system rat; conditions: 6 h after oral administration of 10 mg/kg, normotensive male Wistar rats, compared to vehicle group
rat trachea rings [1] = system: rat trachea rings
Procedure: (§1) Measurement of Isometric Force Development
(§2) Female Wistar rats are euthanized by exposure to CO2. The tracheae are excised and rings from the lower segments are prepared. […] A resting force of 2 g (20 mN) is applied to the ring preparation, and changes in force generation are measured using an isometric force recorder (EMKA Technologies Inc., Paris, France). Viability of rings is assessed by exposure to a depolarizing concentration of KCl (50 mM). Contraction of trachea is expressed as a percentage of the response to KCl.
(§3) The compounds are prepared as stock solutions of 0.3 mM in pure DMSO.

rat trachea rings [2] = assay: Measurement of isometric force development: constriction of rat trachea rings; conditions: in % of the constriction induced by 50 mM KCl
Procedure: as §1, §2, §3

[3] = molecular target: T1, human S1P1 (EDG1) receptor (Homo sapiens, UniProt P21453); assay: S1P1 β-arrestin recruitment (Tango) assay to determine EC50 values; assay type: cell-based; conditions: Tango-EDG1 bla U2OS cells, 16 h incubation
T1 construct: host or cells: U2OS (Tango EDG1-bla U2OS)
T1 sequence (P21453 whole entry): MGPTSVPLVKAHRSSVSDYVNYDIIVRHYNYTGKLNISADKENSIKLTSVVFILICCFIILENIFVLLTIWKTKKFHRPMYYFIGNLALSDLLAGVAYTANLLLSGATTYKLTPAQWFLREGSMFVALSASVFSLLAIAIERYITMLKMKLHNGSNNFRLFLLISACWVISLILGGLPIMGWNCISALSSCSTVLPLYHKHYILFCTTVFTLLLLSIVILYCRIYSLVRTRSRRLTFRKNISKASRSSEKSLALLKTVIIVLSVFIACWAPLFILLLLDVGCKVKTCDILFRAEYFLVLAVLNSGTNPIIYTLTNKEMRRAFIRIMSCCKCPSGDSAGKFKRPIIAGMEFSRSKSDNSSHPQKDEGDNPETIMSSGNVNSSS

concentration at which significant (or KCl-comparable) rat trachea constriction is shown (rat trachea rings [1]): 100 nM
pEC50 [3]: 10.00
Substance: 4-((2-(4-(5-(2-Cyclopentyl-6-methoxypyridin-4-yl)-1,2,4-oxadiazol-3-yl)-2-ethyl-6-methylphenoxy)ethyl)amino)-4-oxobutanoic acid [Example 50]
Lymphocyte counts (circulating lymphocytes): −57%
% trachea constriction at 10 nM (rat trachea rings [2]; 10 nM): <5%
% trachea constriction at 30 nM (rat trachea rings [2]; 30 nM): 55%
% trachea constriction at 0.1 μM (rat trachea rings [2]; 0.1 μM): 103%
